Laboratory results taken from article PMC8296573, “Synthesis and Biological Evaluation of Fingolimod Derivatives as Antibacterial Agents” (ACS Omega, 2021).
In brackets after ≈: the same amount, converted by molar mass. Read-outs that look alike come from different tables or passages of the source.

Experiments:
[1] = system: S. aureus ATCC 12598; assay: Antibacterial activity, pre-exposure; type: cell-based, Staphylococcus aureus; details: for Average inhibition %, biofilms viability / Average inhibition %, planktonic cells viability / inhibition at 5 µM / inhibition at 10 µM / inhibition at 15 µM / inhibition at 25 µM: S. aureus ATCC 12598, pre-exposure, ± SD; for inhibition at 5 µM / inhibition at 10 µM / inhibition at 15 µM / inhibition at 25 µM / MIC: Staphylococcus aureus, ATCC12598; for MIC: pre-exposure, 18 h, read-out: MIC S. aureus ATCC 12598
Method: (§1) The antimicrobial activity was assessed in a similar way for the initial screening and the dose–response evaluation against different bacterial strains. With the exception of the post-exposure experiment, the compounds were added to the wells along with the bacteria to test the ability of compounds to prevent bacterial growth and biofilm formation (pre-exposure). The compounds were diluted in DMSO and plated directly in 96-well plates before adding the bacterial culture, and plates were incubated for 18 h under aerobic conditions at 37 °C with shaking (220 rpm). The antibacterial activity of the compounds was assessed on planktonic cells and biofilms separately using two different measurements for each: optical density (turbidity) and resazurin reduction (viability) on planktonic cells and resazurin followed by a crystal violet staining assay (total biomass) on biofilms, as described in the following sections.
(§2) The resazurin staining was performed according to the protocol previously optimized with a few modifications.[46] Briefly, the planktonic solution was first transferred into a new 96-well plate and the OD of the planktonic solution was measured using a Varioskan LUX Multimode microplate reader (Thermo Scientific, Vantaa, Finland). Then, 10 μL of a 400 μM resazurin (R7017, Sigma-Aldrich, St. Louis, MO) diluted in phosphate-buffered saline (PBS) (Thermo Fisher Scientific, MA) was added to the wells (for a final resazurin concentration of 20 μM). The plate was incubated in the dark with shaking (220 rpm) for about 3–10 min at room temperature with S. aureus and A. baumannii (until the bacteria controls turned pink) or for 20 min at 37 °C with P. aeruginosa. Fluorescence was measured at λex = 560 nm and λem = 590 nm using the top optics of the Varioskan LUX Multimode microplate reader. The planktonic plate was then discarded. The original challenge plate containing the biofilms was washed once with PBS, and 200 μL of a 20 μM resazurin solution was added to the wells. The plate was incubated in the dark at 37 °C with shaking (220 rpm) for 30 min with S. aureus, 60 min with A. baumannii, and 90 min with P. aeruginosa. Fluorescence was measured as described for the planktonic solution. The biofilms were next treated with crystal violet staining.
(§3) After removing the resazurin solution from the plate, biofilms were fixed with ethanol 100% for 15 min at room temperature. Ethanol was then removed, and the biofilms were left to air-dry completely at RT. Crystal violet, diluted to 1:100 in deionized water from the 2.3% commercial solution (HT90132, Sigma-Aldrich, St. Louis, MO), was added to the wells and, after a 5 min incubation with the dye, the biofilms were washed twice with deionized water and left to air-dry for about 10 min. The dye was solubilized in ethanol 100% for 1 h, and absorbance was measured at 595 nm using a Multiskan Sky microplate spectrophotometer (Thermo Scientific, Vantaa, Finland).

[2] = system: S. aureus P2; assay: Antibacterial activity, pre-exposure; type: cell-based, Staphylococcus aureus; details: for Average inhibition %, biofilms viability / Average inhibition %, planktonic cells viability / inhibition at 5 µM / inhibition at 10 µM / inhibition at 15 µM / inhibition at 25 µM: S. aureus P2, pre-exposure, ± SD; for MIC / inhibition at 5 µM / inhibition at 10 µM / inhibition at 15 µM / inhibition at 25 µM: Staphylococcus aureus; for MIC: P2, pre-exposure, 18 h
Method: as §1, §2, §3

[3] = Cytotoxicity, resazurin staining assay; type: cell-based, human; details: human, 24 h incubation
Method: The cytotoxicity of the compounds was assessed on the three different human cell lines, A549, HEp-2, and HL-60, using the redox-based resazurin staining assay. The cells were seeded in clear 96-well plates at a density of 1 × 10^4 cells per well in a volume of 200 μL per well. The adherent cells were let to attach for 24 h before changing the media and adding the compounds (final concentration of 0.25% DMSO). HL-60 were counted and added to the plates at a density of 1 × 10^4 cells per well in a volume of 200 μL directly with the compounds. Untreated cells were used as negative controls, and cells treated with 1% TritonX-100 (Sigma-Aldrich, St. Louis, MO) were used as positive controls for cytotoxicity. The cells were incubated with the compounds for 24 h.
For the resazurin assay, the media was first removed, and the adherent cells were washed once with PBS. Then, 200 μL of 20 μM resazurin was added per well and cells were incubated for two more hours before the measurement of fluorescence, as mentioned earlier. For HL-60, 10 μL of 400 μM resazurin was added directly to the wells and the cells were incubated for an additional 4 h before the measurement of fluorescence.

[4] = 5 µM, read-out: Average inhibition %, biofilms biomass
[5] = 5 µM, read-out: Average inhibition %, planktonic cells turbidity
[6] = 10 µM, read-out: Average inhibition %, biofilms biomass
[7] = 10 µM, read-out: Average inhibition %, planktonic cells turbidity
[8] = 15 µM, read-out: Average inhibition %, biofilms biomass
[9] = 15 µM, read-out: Average inhibition %, planktonic cells turbidity
[10] = 25 µM, read-out: Average inhibition %, biofilms biomass
[11] = 25 µM, read-out: Average inhibition %, planktonic cells turbidity

SMILES: CCCCCCCCc1ccc2ccc(CC(N)(CO)CO)nc2c1 [Compound 82, 2-Amino-2-[(7-octylquinolin-2-yl)methyl]propane-1,3-diol]
- Average inhibition %, biofilms viability ([1]; 5 µM): 12.2 ± 12.8%
- Average inhibition %, planktonic cells viability ([1]; 5 µM): 13.3 ± 5%
- Average inhibition %, biofilms viability ([1]; 10 µM): 99.1 ± 0.2%
- Average inhibition %, planktonic cells viability ([1]; 10 µM): 99.8 ± 0%
- Average inhibition %, biofilms viability ([1]; 15 µM): 99.5 ± 0%
- Average inhibition %, planktonic cells viability ([1]; 15 µM): 99.7 ± 0%
- Average inhibition %, biofilms viability ([1]; 25 µM): 99.7 ± 0.1%
- Average inhibition %, planktonic cells viability ([1]; 25 µM): 99.6 ± 0.1%
- inhibition at 5 µM [1, 4]: 26.3 ± 11.6%
- inhibition at 5 µM [1, 5]: 20.6 ± 8.5%
- inhibition at 10 µM [1, 6]: 94.4 ± 1.7%
- inhibition at 10 µM [1, 7]: 99.6 ± 0.1%
- inhibition at 15 µM [1, 8]: 97.1 ± 1.1%
- inhibition at 15 µM [1, 9]: 99.7%
- inhibition at 25 µM [1, 10]: 94.6 ± 1.4%
- inhibition at 25 µM [1, 11]: 99.4 ± 0.2%
- MIC [1]: 10 µM (≈ 3.44 µg/mL)
- Average inhibition %, biofilms viability ([2]; 5 µM): 23.7 ± 8.8%
- Average inhibition %, planktonic cells viability ([2]; 5 µM): 1 ± 1.8%
- Average inhibition %, biofilms viability ([2]; 10 µM): 99.5 ± 0%
- Average inhibition %, planktonic cells viability ([2]; 10 µM): 99.8 ± 0%
- Average inhibition %, biofilms viability ([2]; 15 µM): 99.8 ± 0%
- Average inhibition %, planktonic cells viability ([2]; 15 µM): 99.6 ± 0%
- Average inhibition %, biofilms viability ([2]; 25 µM): 99.7 ± 0.1%
- Average inhibition %, planktonic cells viability ([2]; 25 µM): 99.5 ± 0%
- MIC [2]: 10 µM (≈ 3.44 µg/mL)
- inhibition at 5 µM [2, 4]: 39.9 ± 7%
- inhibition at 5 µM [2, 5]: 5 ± 2.2%
- inhibition at 10 µM [2, 6]: 97.6 ± 0.4%
- inhibition at 10 µM [2, 7]: 99.6%
- inhibition at 15 µM [2, 8]: 97.2 ± 0.8%
- inhibition at 15 µM [2, 9]: 99.7%
- inhibition at 25 µM [2, 10]: 96.4 ± 0.6%
- inhibition at 25 µM [2, 11]: 99.4 ± 0.1%
- CC50 at 24 h ([3]; A549 cells): 27.5 ± 3 µM
- CC50 at 24 h ([3]; HEp-2 cells): 28.8 ± 1.8 µM
- CC50 at 24 h ([3]; HL-60 cells): 6.5 ± 0.8 µM

SMILES: CCCCCCCCCCc1ccc(C(O)CC(N)(CO)CO)cc1 (centres unmarked) [Compound 55, 3-Amino-3-(hydroxymethyl)-1-(4-decylphenyl)butane-1,4-diol]
- Average inhibition %, biofilms viability ([1]; 5 µM): 15.2 ± 6.4%
- Average inhibition %, planktonic cells viability ([1]; 5 µM): 7.6 ± 8.8%
- Average inhibition %, biofilms viability ([1]; 10 µM): 99.2 ± 0.1%
- Average inhibition %, planktonic cells viability ([1]; 10 µM): 99.8 ± 0%
- Average inhibition %, biofilms viability ([1]; 15 µM): 99.5 ± 0.3%
- Average inhibition %, planktonic cells viability ([1]; 15 µM): 99.7 ± 0%
- Average inhibition %, biofilms viability ([1]; 25 µM): 99.6 ± 0%
- Average inhibition %, planktonic cells viability ([1]; 25 µM): 99.6 ± 0.1%
- inhibition at 5 µM [1, 4]: 27.6 ± 19.6%
- inhibition at 5 µM [1, 5]: 21.2 ± 6.5%
- inhibition at 10 µM [1, 6]: 94.3 ± 1.2%
- inhibition at 10 µM [1, 7]: 99.6 ± 0.1%
- inhibition at 15 µM [1, 8]: 93 ± 1.1%
- inhibition at 15 µM [1, 9]: 99.4 ± 0.2%
- inhibition at 25 µM [1, 10]: 90.2 ± 2.1%
- inhibition at 25 µM [1, 11]: 98.9 ± 0.3%
- MIC [1]: 10 µM (≈ 3.52 µg/mL)
- Average inhibition %, biofilms viability ([2]; 5 µM): 32.1 ± 8.5%
- Average inhibition %, planktonic cells viability ([2]; 5 µM): 3.4 ± 5.8%
- Average inhibition %, biofilms viability ([2]; 10 µM): 99.4 ± 0.2%
- Average inhibition %, planktonic cells viability ([2]; 10 µM): 99.8 ± 0%
- Average inhibition %, biofilms viability ([2]; 15 µM): 99.6 ± 0%
- Average inhibition %, planktonic cells viability ([2]; 15 µM): 99.6 ± 0.1%
- Average inhibition %, biofilms viability ([2]; 25 µM): 99.6 ± 0%
- Average inhibition %, planktonic cells viability ([2]; 25 µM): 99.5 ± 0.1%
- MIC [2]: 10 µM (≈ 3.52 µg/mL)
- inhibition at 5 µM [2, 4]: 23.6 ± 10.9%
- inhibition at 5 µM [2, 5]: 14 ± 3%
- inhibition at 10 µM [2, 6]: 96.5 ± 0.7%
- inhibition at 10 µM [2, 7]: 99.6 ± 0.1%
- inhibition at 15 µM [2, 8]: 95.1 ± 0.2%
- inhibition at 15 µM [2, 9]: 99.3 ± 0.1%
- inhibition at 25 µM [2, 10]: 91.6 ± 1.2%
- inhibition at 25 µM [2, 11]: 98.8 ± 0.2%
- CC50 at 24 h ([3]; A549 cells): 35.3 ± 5.1 µM
- CC50 at 24 h ([3]; HEp-2 cells): 33.9 ± 1.2 µM
- CC50 at 24 h ([3]; HL-60 cells): 7.4 ± 6.9 µM
